What all share (format): cell-based
Test [1] concerns pERK (Thr202/Tyr204) in NCI-H358 cells expressing mutant RAS (G12C). Description: Inhibition of RAS-mediated signal transduction: p-ERK ELISA normalized to Janus green. As to conditions: for pIC50: NCI-H358 cells, 2 hours of treatment, ELISA, read-out: p-ERK IC50 (NCI H358). The method, then:
NCI-H358 cells (ATCC accession No. CRL-5807) expressing mutant RAS (G12C) were cultured in an RPMI medium containing 10% fetal bovine serum, penicillin/streptomycin double antibody. The cells were plated on to a 96-well plate (Corning Cat. No. 3699) at 40,000 cells per well and left standing overnight to adhere to the bottom of the plate. The cells were treated with or without the compounds of the present disclosure (dimethylsulfoxide, DMSO), with a final DMSO concentration of 0.5% ensured. After 2 hours of treatment, the medium was removed, and 4% paraformaldehyde (Beyotime Cat. No. E672002-0100) was added. The resulting mixture was left standing for 20 min. After being immobilized, the cells were washed with PBS and incubated with pre-cooled methanol for 10 min to permeabilize the cell membrane. Non-specific antibody binding was blocked by incubation for 1 h with 1× blocking buffer (Thermo Cat. No. 37520).
The ERK phosphorylation level was detected by enzyme-linked immunosorbent assay (ELISA). A phospho-ERK antibody (Cell Signal Technology Cat. No. 4370) was 1:400 diluted with 1× blocking solution containing 0.05% tween 20 and added to the 96-well plate for overnight incubation at 4° C. The plate was washed 5 times with PBS containing 0.05% tween 20. An HRP-conjugated secondary antibody (Thermo Cat. No. 31460) was 1:10,000 diluted with 1× blocking buffer containing 0.05% tween 20 and added to the 96-well plate for incubation for 2 h at room temperature. The plate was washed 5 times with PBS containing 0.05% Tween and incubated with TMB (Thermo Cat. No. 4816) at room temperature for 15 min. The reaction was terminated with 1 mol/L H2SO4, and the OD values were read at a wavelength of 450 nm using an EnVision (PerkinElmer).
The total number of cells per well was measured using the Janus green staining method. The 96-well plate after the detection of the ERK phosphorylation level was washed to colorlessness with PBS and incubated with 0.1% Janus green (Abcam Cat. No. ab111622) for 10 min. After washing with double distilled water, the plate was incubated with 0.1 mol/L HCl with shaking for 10 min. The OD values were read at a wavelength of 595 nm using an EnVision (PerkinElmer).
The signal values of pERK (Thr202/Tyr204) were normalized using the signal values of Janus green, and the inhibition percentages relative to the DMSO reference were calculated after treatment with the drugs. The percentage values were subjected to four-parameter dose response curve fitting to generate IC50 values.
(In general: An ELISA detects its analyte on a solid surface through an enzyme-linked reagent.)

Test [2] concerns NCI-H358 cells expressing KRAS-G12C. Description: Cell proliferation assay (Cell Titer Glo), NCI-H358. The conditions noted are these: Homo sapiens, 72 h, ATP content (Cell Titer Glo). The method, then:
(§1) The ability of the compounds of the present disclosure to inhibit the growth of KRAS-G12C-expressing cells was assessed by measuring cell viability and calculating GI50 values.
(§2) Tumor cell line NCI-H358 (ATCC accession No. CRL-5807) expressing KRAS-G12C was cultured in an RPMI medium supplemented with 10% fetal bovine serum and penicillin/streptomycin double antibody; tumor cell line MIA PaCa2 (ATCC CRL-1420) expressing KRAS-G12C was cultured in a DMEM medium supplemented with 10% fetal bovine serum, 2.5% horse serum and penicillin/streptomycin double antibody.
(§3) NCI-H358 and MIA-Paca2 cells were seeded on a black clear-bottom 384-well plate (PerkinElmer Cat. No. 6007460) at densities of 1000 and 800 cells, respectively, and allowed to adhere to the walls overnight (8-12 h). After the cells adhered to the walls, the diluted compounds of the present disclosure with a concentration that was 5 times that of the working solution (containing 0.1% dimethyl sulfoxide, namely DMSO, at the final concentration) was added to the experimental groups; the same dilution (containing 0.1% DMSO at the final concentration) as in the experimental groups was added to the control group. After 72 h, the amount of cell proliferation was measured by measuring ATP content using a Cell Titer Glo reagent (Promega Cat. No. G7572) according to the method described in the manuals. Steps are briefly as follows: the cell plate was taken out and equilibrated at normal temperature for 30 min; the Cell Titer Glo reagent with an equal volume to that of the culture was added; the culture plate was placed on a shaker for lysis for 2 min; the culture plate was left standing at normal temperature for 10 min; the optical signal values were read using a microplate reader EnVision (PerkinElmer).
(§4) The inhibition percentages were calculated from the data of the experimental groups relative to the DMSO group, and GI50 was calculated using the data processing software GraphPad by analyzing the inhibitory rates yielded by 9 dosing concentrations produced by 1:3 dilution of the compounds, with the results shown in Table 2.

Test [3] deals with MIA PaCa2 cells expressing KRAS-G12C. Description: Cell proliferation assay (Cell Titer Glo), MIA PaCa2. The conditions noted are these: Homo sapiens, MIA PaCa-2, 72 h, ATP content (Cell Titer Glo). As to the method:
as §1, §2, §3, §4
In general terms: ATP-based viability assays read luminescence as a measure of living cells.

Molecules are shown by their SMILES. pIC50: −log10 of the molar value. Like-named read-outs stand apart in the source and are kept apart here.

For `C=CC(=O)N1CCN2c3nc(=O)n(-c4c(C)ccnc4C(C)C)c4cc(-c5c(O)cccc5F)c(F)c(c34)OC[C@H]2C1` [Compound 2], the pIC50 (as a rule, the negative decadic logarithm of the IC50, by convention in mol/L) in test [1] was 7.00.
For `C=CC(=O)N1CCN2c3nc(=O)n(-c4c(C)ccnc4C(C)C)c4cc(-c5c(O)cccc5F)c(F)c(c34)OC[C@@H]2C1` [Compound 1A], the pIC50 in test [1] is 6.21.
Turning to `C=CC(=O)N1CCN2c3nc(=O)n(-c4c(C)ccnc4C(C)C)c4cc(-c5c(N)c(Cl)cc(Cl)c5F)c(F)c(c34)OC[C@H]2C1` (atropisomer, axis not shown) [Compound 11A], the pIC50 in test [1] (Homo sapiens, NCI-H358, 2 h) is 7.28. The GI50 (commonly the concentration at which growth is held to half of that of the control) in test [2] was determined as 70 nM; in test [3] it was 685 nM.
As to `C=CC(=O)N1CCN2c3nc(=O)n(-c4c(C)ccnc4C(C)C)c4cc(-c5c(F)ccc6cc[nH]c(=O)c56)c(F)c(c34)OC[C@H]2C1` [Compound 14A], the pIC50 in test [1] (Homo sapiens, NCI-H358, 2 h) was under 5.00.
Consider `C=CC(=O)N1CCN(c2ncnc3c(F)c(-c4c(O)cccc4F)c(Cl)cc23)CC1` [ARS-1620], for which, in test [1] (Homo sapiens, NCI-H358, 2 h, read-out: p-ERK IC50 (NCI H358, μM)), the IC50 (in general, the point on the concentration scale where inhibition reaches its midpoint) was 0.325 µM. Besides, the GI50 was determined as 510 nM in test [2] and 1210 nM in test [3].
In the case of `C=CC(=O)N1CCN2c3nc(=O)n(-c4c(C)ccnc4C(C)C)c4cc(-c5c(O)cccc5F)c(F)c(c34)OC[C@H]2C1` [Compound 2A], in test [1] (Homo sapiens, NCI-H358, 2 h), the pIC50 is 7.28. Also, the GI50 is 29 nM in test [2] and 48 nM in test [3].
The corresponding values for `C=CC(=O)N1CCN2c3nc(=O)n(-c4c(C)ccnc4C(C)C)c4cc(-c5c(N)cccc5F)c(F)c(c34)OC[C@H]2C1` [Compound 12A] are 7.49, 10 nM and 54 nM.
Take `C=CC(=O)N1CCN2c3nc(=O)n(-c4c(C)ccnc4C(C)C)c4c(F)c(-c5c(O)cccc5F)nc(c34)OC[C@@H]2C1` [Compound 3]: the pIC50 in test [1] (Homo sapiens, NCI-H358, 2 h) was 6.19.
As for `C=CC(=O)N1CCN2c3nc(=O)n(-c4c(C)ccnc4C(C)C)c4nc(-c5c(O)cccc5F)c(F)c(c34)OC[C@H]2C1` (atropisomer, axis not shown) [Compound 7A], the pIC50 in test [1] (Homo sapiens, NCI-H358, 2 h) is 6.71. For the same compound, the 50% growth inhibitory concentration (GI50) was 133 nM in test [2] and 629 nM in test [3].
Turning to `C=CC(=O)N1CCN2c3nc(=O)n(-c4c(C)ccnc4C(C)C)c4c(F)c(-c5c(O)cccc5F)c(F)c(c34)OC[C@H]2C1` (atropisomer, axis not shown) [Compound 15A], the pIC50 in test [1] (Homo sapiens, NCI-H358, 2 h) is 5.20. In addition, the GI50 was 3430 nM in test [2] and 4520 nM in test [3].
Consider `C=CC(=O)N1CCN2c3nc(=O)n(-c4c(C)ccnc4C(C)C)c4c(F)c(-c5c(O)cccc5F)nc(c34)OC[C@H]2C1` (atropisomer, axis not shown) [Compound 10A], for which the pIC50 in test [1] (Homo sapiens, NCI-H358, 2 h) was 7.19. For the same compound, the results for the GI50 in test [2] and in test [3] were 111 nM and 333 nM, respectively.
For `C=CC(=O)N1CCN(c2nc(=O)n(-c3c(C)ccnc3C(C)C)c3c(F)c(-c4c(O)cccc4F)ncc23)[C@@H](C)C1` [Compound 13], in test [1] (Homo sapiens, NCI-H358, 2 h), the pIC50 was 6.80. Further, the GI50 was determined as 320 nM in test [2] and 1270 nM in test [3].
For the compound `C=C(F)C(=O)N1CCN2c3nc(=O)n(-c4c(C)ccnc4C(C)C)c4cc(-c5c(O)cccc5F)c(F)c(c34)OC[C@H]2C1` [Compound 5A], in test [1] (Homo sapiens, NCI-H358, 2 h), the pIC50 is 6.20.
Regarding `C=CC(=O)N1C[C@@H]2COc3c(F)c(-c4c(O)cccc4F)nc4c3c(nc(=O)n4-c3c(C)ccnc3C(C)C)N2[C@@H](C)C1` (single isomer, unassigned) [Compound 8A], the pIC50 in test [1] (Homo sapiens, NCI-H358, 2 h) was 6.59. For the same compound, the results for the GI50 in test [2] and in test [3] were 350 nM and 304 nM, respectively.
For the compound `C=CC(=O)N1CCN2c3nc(=O)n(-c4c(C)ccnc4C(C)C)c4cc(-c5c(O)cccc5F)c(F)c(c34)OC[C@@H]2C1` [Compound 1], the pIC50 in test [1] was 6.54.
With `C=CC(=O)N1CCN2c3nc(=O)n(-c4c(C)ccnc4C(C)C)c4cc(-c5c(O)ccc(F)c5F)c(F)c(c34)OC[C@H]2C1` (atropisomer, axis not shown) [Compound 4A], in test [1] (Homo sapiens, NCI-H358, 2 h), the pIC50 is 7.42. For the same compound, the figures for the GI50 in test [2] and in test [3] were 34 nM and 324 nM, respectively.
With `C=CC(=O)N1CCN2c3nc(=O)n(-c4c(C)ccnc4C(C)C)c4cc(-c5c(C)ccc6[nH]ncc56)c(F)c(c34)OC[C@H]2C1` (atropisomer, axis not shown) [Compound 6A], the pIC50 in test [1] (Homo sapiens, NCI-H358, 2 h) was 5.75.

The values above are taken from patent US20220298174A1, “TETRACYCLIC COMPOUND, PREPARATION METHOD THEREFOR AND USE THEREOF” (SHANGHAI JEMINCARE PHARMACEUTICALS CO., LTD, priority 2019, published 2022).
